Experimental data from PubChem BioAssay AID1508603 (National Center for Advancing Translational Sciences (NCATS), 2020).

Each compound was assayed on human liver cytosol stability, half-life (assay: NCATS Human Liver Cytosol Stability Profiling). Conditions: higher = more stable.
Experimental: Assay submitter (PI): Pranav Shah Ph.D.
NIH Center for Advancing Translational Sciences
Over the last few decades, chemists have become skilled at designing compounds that avoid cytochrome P (CYP) 450 mediated metabolism. Typical screening assays are performed in liver microsomal fractions and it is possible to overlook the contribution of cytosolic enzymes until much later in the drug discovery process. Few data exist on cytosolic enzyme-mediated metabolism and no reliable tools are available to chemists to help design away from such liabilities. In this study, we screened 1450 compounds for liver cytosol-mediated metabolic stability and extracted transformation rules that might help medicinal chemists in optimizing compounds with these liabilities. […] Matched molecular pairs analysis was performed in conjunction with qualitative-structure activity relationship modeling to identify chemical structure transformations affecting cytosolic stability. The transformation rules were prospectively validated on the test set. In addition, selected rules were validated on a diverse chemical library and the resulting pairs were experimentally tested to confirm whether the identified transformations could be generalized. The validation results, comprising nearly 250 library compounds and corresponding half-life data, are made publicly available. The datasets were also used to generate in silico classification models, based on different molecular descriptors and machine learning methods, to predict cytosol-mediated liabilities. To the best of our knowledge, this is the first systematic in silico effort to address cytosolic enzyme-mediated liabilities (Shah 2020).
Shah, P., Siramshetty, V.B., Zakharov, A.V. et al. Predicting liver cytosol stability of small molecules. J Cheminform 12, 21 (2020). https://doi.org/10.1186/s13321-020-00426-7
Compounds are classified as unstable (t 1/2 < 30 min) or stable (t 1/2 > 30 min).
1. Shah, P. et al. An Automated High-Throughput Metabolic Stability Assay Using an Integrated High-Resolution Accurate Mass Method and Automated Data Analysis Software. Drug Metab Dispos 44, 1653-1661 (2016). PMID 27417180
For `O=C(c1cccs1)N1CCC(Oc2cccc(F)c2)C1` (stereo not drawn), the half-life was 0.29 h. With `COc1ccccc1-c1[nH]nc2ncc(-c3cccc(F)c3)nc12` the half-life was > 2 h. In the case of `COc1ccc(CN2CC(Oc3ccc(OC)cc3)C2)cc1`, the half-life is reported as > 2 h. `O=C(c1cccs1)N1CCC(Oc2ccccc2)C1` (stereo not drawn) gave a half-life of 0.638 h. `O=C(c1ccsc1)N1CCC(Oc2cccc(F)c2)C1` (stereo not drawn) was tested, and the half-life was 1.38 h. In the case of `COc1ccc(CN2CC(Oc3ccc(F)cc3F)C2)cc1`, the half-life is reported as 0.605 h. `COc1cccc(-c2cn3c(n2)N(C(=O)c2ccoc2)CCC3)c1` gave a half-life of 1.86 h. `O=C(c1ccc(-c2ncc3cnc(-c4cccc(F)c4)cn23)cc1)N1CCc2cccnc21` gave a half-life of 0.288 h. With `CC(C)(C)c1coc([C@@H]2COCCN2Cc2ccc(C(=O)O)cc2)n1` the half-life was 1.88 h. `COc1cccc(-c2c(C(=O)N3CCOCC3)nc3sccn23)c1` was tested, and the half-life was > 2 h. For `N#Cc1ccc(CN2CCC3(CC2)CC(=O)c2ccccc2O3)cc1`, the half-life was > 2 h. `Fc1cccc(-c2cnc(Nc3cccnc3)c3c2CCO3)c1` was tested, and the half-life was > 2 h. For `COc1cccc(CN2CCC3(CC2)OCCN(C)C3=O)c1`, the half-life was > 2 h. In the case of `O=C(NCCc1cnc[nH]1)c1ccc(-c2ncc3cnc(-c4cccc(F)c4)cn23)cc1`, the half-life is reported as 0.248 h. With `N#Cc1cccc(CN2C[C@@H](CO)[C@H](c3ccccn3)C2)c1` the half-life was 0.957 h. For `COc1cccc(-c2cn3c(n2)N(C(=O)c2ccco2)CCC3)c1`, the half-life was 0.993 h. With `CN1c2cc(C(=O)Nc3ccc(C#N)cc3)ccc2C(=O)N2CCCCC21` (stereo not drawn) the half-life was > 2 h. With `Cn1cnc2ccc(Nc3cccc(F)c3)nc2c1=O` the half-life was 1.92 h. With `COc1ccc(C(=O)N2C[C@@H](CO)[C@H](N(C)C)C2)cc1` the half-life was > 2 h. In the case of `CC(C)(C)c1coc([C@@H]2COCCN2Cc2cccc(C#N)c2)n1`, the half-life is reported as 0.943 h. For `CCN1CCN(C(=O)c2nc3sccn3c2-c2cccc(OC)c2)CC1`, the half-life was > 2 h. In the case of `Cc1nn2c(c1-c1ccccc1Oc1ccccc1)N(Cc1ccc(C(=O)O)cc1)CCC2`, the half-life is reported as > 2 h. With `COc1ccc(CN2CCC3(CC2)CC(=O)c2ccccc2O3)cc1` the half-life was > 2 h. With `O=C(O)c1ccc2c(c1)n(Cc1cccc(F)c1)c(=O)c1ccnn12` the half-life was > 2 h. For `CN(C)[C@@H]1CN(C(=O)c2ccc(C#N)cc2)C[C@H]1CO`, the half-life was > 2 h. For `N#Cc1ccc(CN2C[C@@H](CO)[C@H](c3ccncc3)C2)cc1`, the half-life was 1.78 h. For `CNC(=O)[C@@H]1CN(C(=O)c2cccc(OC)c2)C[C@H]1COC`, the half-life was > 2 h. For `O=C(c1ccsc1)N1CCC(Oc2ccccc2)C1` (stereo not drawn), the half-life was 0.667 h. With `CN1CCC(OC2CCN(C(=O)c3ccccc3)CC2)CC1` the half-life was > 2 h. Compound `N#Cc1ccccc1CN1CCC2(CC1)CC(O)CCO2` (stereo not drawn) has a half-life of 1.34 h. `N#Cc1cccc(-c2c(C(=O)N3CCOCC3)nc3sccn23)c1` was tested, and the half-life was > 2 h. Compound `Cc1ccc(-c2noc([C@@H]3Cc4nc[nH]c4CN3Cc3cccc(C#N)c3)n2)cc1` has a half-life of 1.06 h. `COc1cccc(CN2CC[C@H](c3nnc(-c4ccco4)o3)C2)c1` showed a half-life of 1.97 h. `O=C(O)c1ccc(-c2ccc(N3CCCCCC3)nc2)cc1` was tested, and the half-life was > 2 h. `O=c1cc(N2CCOCC2)oc2c(-c3cccc(F)c3)nccc12` was tested, and the half-life was > 2 h. With `N#Cc1ccc(CN2CCC(N3CCOC3=O)CC2)cc1` the half-life was > 2 h. `CC(=O)N1CCC(Cc2ccc(C(=O)NC3CC3)cc2)CC1` was tested, and the half-life was 1.33 h. In the case of `COc1cccc(CN2CC[C@H](c3nc4ccccc4[nH]3)C2)c1`, the half-life is reported as > 2 h. In the case of `CN(CC1CCOC1)C(=O)Nc1cccc(F)c1` (stereo not drawn), the half-life is reported as > 2 h. In the case of `COc1ccc(CN2CC(N3CCc4ccccc43)C2)cc1`, the half-life is reported as 1.37 h. In the case of `CCOCCOC1CCN(C(=O)Nc2ccccc2)CC1`, the half-life is reported as > 2 h. Compound `N#Cc1cccc(-c2c(C(=O)N3CCCCC3)nc3sccn23)c1` has a half-life of 1.72 h. In the case of `Cc1nn2c(c1-c1ccccc1Oc1ccccc1)N(Cc1cccc(C#N)c1)CCC2`, the half-life is reported as > 2 h.
